Source: patent publication US11414385B2, “Compounds and methods for treating, detecting, and identifying compounds to treat apicomplexan parasitic diseases” (The University of Chicago, priority 2015, dated 2022)
Read-outs that look alike come from different tables or passages of the source.

What was measured:
[1] = system: T. gondii tachyzoites (RH-YFP strain); experiment: In vitro challenge assay for Toxoplasma tachyzoites (RH-YFP in HFF, fluorescence); format: cell-based, Toxoplasma gondii; settings: Toxoplasma gondii; RH-YFP; read-out: Tachy IC50
Method: Human foreskin fibroblasts (HFF) were cultured on a flat, clear-bottomed, black 96-well plate to 90% to 100% confluence. IMDM (1×, [+] glutamine, [+] 25 mM HEPES, [+] Phenol red, 10% FBS [gibco, Denmark]) was removed from each well and replaced with IMDM-C (1×, [+] glutamine, [+] 25 mM HEPES, [−] Phenol red, 10% FBS)[Gibco, Denmark]). Type I RH parasites expressing Yellow Fluorescent Protein (RH-YFP) were lysed from host cells by double passage through a 27-gauge needle. Parasites were counted and diluted to 32,000/mL in IMDM-C. Fibroblast cultures were infected with 3200 tachyzoites of the Type I RH-YFP strain and returned to incubator at 37° C. for 1-2 hours to allow for infection. Diluted solutions of the compounds were made using IMDM-C, and 20 μl were added to each designated well, with triplicates for each condition. Controls included pyrimethamine/sulfadiazine (current standard of treatment), DMSO only, fibroblast only, and an untreated YFP gradient with 2 fold dilutions of the parasite. Cells were incubated at 37° C. for 72 hours. The plates were read using a fluorimeter (Synergy H4 Hybrid Reader, BioTek) To ascertain the amount of yellow fluorescent protein, in relative fluorescence units (RFU), as a measure of parasite burden after treatment. Compounds were not considered effective or pursued for further analysis if there were no signs of inhibition at 1 μM. Data was collected using Gen5 software and analyzed with Excel.
Protocol adapted from Fomovska, et. al. (18,19). Human foreskin fibroblasts (HFF) were cultured on a flat, clear-bottomed, black 96-well plate to 90% to 100% confluence. IMDM (1×, [+] glutamine, [+] 25 mM HEPES, [+] Phenol red, 10% FBS [gibco, Denmark]) was removed from each well and replaced with IMDM-C (1×, [+] glutamine, [+] 25 mM HEPES, [−] Phenol red, 10% FBS)[gibco, Denmark]). Type I RH parasites expressing Yellow Fluorescent Protein (RH-YFP) were lysed from host cells by double passage through a 27-gauge needle. Parasites were counted and diluted to 32,000/mL in IMDM-C. Fibroblast cultures were infected with 3200 tachyzoites of the Type I RH strain expressing Yellow Fluorescent Protein (RH-YFP) and returned to incubator at 37° C. for 1-2 hours to allow for infection (15). Various concentrations of the compounds were made using IMDM-C, and 20 μl were added to each designated well, with triplicates for each condition. Controls included pyrimethamine/sulfadiazine (current standard of treatment), 0.1% DMSO only, fibroblast only, and an untreated YFP gradient with 2 fold dilutions of the parasite. Cells were incubated at 37° C. for 72 hours. Plates were read using a fluorimeter (Synergy H4 Hybrid Reader, BioTek) to ascertain the amount of yellow fluorescent protein, in relative fluorescence units (RFU), as a measure of parasite burden after treatment. Data was collected using Gen5 software. IC50 was calculated by graphical analysis in Excel.
An initial screening assay of 10 μM, 1 μM, 100 nM, and 10 nM was performed. Compounds were not considered effective or pursued for further analysis if there were no signs of inhibition of tachyzoites at 1 μM. If compounds did appear to be effective at 1 μM, another experiment was conducted to assess effect at 1 μM, 500 nM, 250 nM, 125 nM, 62.5 nM, and 31.25 nM.
Protocol adapted from Fomovska, et. al. (Fomovska A, Huang Q, El Bissati K, Mui E J, Witola W H, Cheng G, et al. Novel N-Benzoyl-2-Hydroxybenzamide Disrupts Unique Parasite Secretory Pathway. Antimicrob Agents Chemother [Internet]. 2012 May [cited 2015 Jul. 8]; 56(5):2666-82; Fomovska A, Wood R D, Mui E, Dubey J P, Ferreira L R, Hickman M R, et al. Salicylanilide inhibitors of Toxoplasma gondii. J Med Chem. 2012 Oct. 11; 55(19):8375-91.). Human foreskin fibroblasts (HFF) were cultured on a flat, clear-bottomed, black 96-well plate to 90% to 100% confluence. […]

[2] = system: P. falciparum strains D6, TM91-C235, W2, C2B; experiment: Malaria SYBR Green I-Based Fluorescence (MSF) Assay; format: cell-based, Plasmodium falciparum
Method: Testing of P. falciparum: D6 is a drug sensitive strain from Sierra Leone, C235 is a multi-drug resistant strain from Thailand, W2 is a chloroquine resistant strain from Thailand, and C2B has resistance to a variety of drugs including atovaquone.
D6 is a drug sensitive strain from Sierra Leone, C235 is a multi-drug resistant strain from Thailand, W2 is a chloroquine resistant strain from Thailand, and C2B has resistance to a variety of drugs including atovaquone. These assays were performed as described.
(§1) Compound activity against P. falciparum, a causative agent of malaria, was tested using the Malaria SYBR Green I—Based Fluorescence (MSF) Assay. This; microtiter plate drug sensitivity assay uses the presence of malarial DNA as a measure of parasitic proliferation in the presence of antimalarial drugs or experimental compounds based on modifications of previously described methods by Plouffe et al (20) and Johnson et al. As the intercalation of SYBR Green I dye and its resulting fluorescence is relative to parasite growth, a test compound that inhibits the growth of the parasite will result in a lower fluorescence.
Selected compounds were examined for activity against four strains of P. falciparum: D6 (CDC/Sierra Leone), a drug-sensitive strain readily killed by chloroquine, TM91-C235, a multi-drug resistant strain resistant to chloroquine, W2, a chloroquine resistant strain from Thailand, and C2B has resistance to a variety of drugs including atovaquone.
D6 is a drug sensitive strain from Sierra Leone, C235 is a multi-drug resistant strain from Thailand, W2 is a chloroquine resistant strain from Thailand, and C2B has resistance to a variety of drugs including atovaquone. These assays were performed using standard protocols.
as §1, with “known in the art.” for “by Plouffe et al (20) and Johnson et al.”, “fluorescence. Selected compounds were examined for activity against four strains of P. falciparum: D6 (CDC/Sierra Leone), a drugsensitive strain readily killed by chloroquine, TM91-C235, a multi-drug resistant strain resistant to chloroquine, W2, a chloroquine resistant strain from Thailand, and C2B has resistance to a variety of drugs including atovaquone.” for “fluorescence.”

[3] = Plasmodium falciparum, C2B strain, read-out: SYBR Green C2B IC50
[4] = Plasmodium falciparum, D6 strain, read-out: Pf D6 IC50
[5] = Plasmodium falciparum, D6 strain, read-out: SYBR Green D6 IC50
[6] = Plasmodium falciparum, TM91C235 strain, read-out: SYBR Green C235 IC50
[7] = Plasmodium falciparum, W2 strain, read-out: SYBR Green W2 IC50

SMILES: Cc1[nH]c2c(c(=O)c1-c1ccc(Oc3cccc(OC(F)(F)F)c3)cc1)CCCC2 [AS006/ JAG143, 2-methyl-3-(4 (3-(trifluoromethoxy)phenoxy)phenyl)-5,6,7,8-tetrahydroquinolin-4(1H)-one]
- IC50 [1]: 0.06 to 0.08 µM

SMILES: Cc1[nH]c2c(c(=O)c1-c1ccc(Oc3cccc(C(F)(F)F)c3)cc1)CCCC2 [AS012/ JAG144, 2-methyl-3-(4-(3-(trifluoromethyl)phenoxy)phenyl)-5,6,7,8-tetrahydroquinolin-4(1H)-one]
- IC50 [1]: 0.3 µM

SMILES: Cc1[nH]c2c(c(=O)c1-c1ccc(Oc3ccc(F)c(Cl)c3)cc1)CCCC2 [AS021/ JAG145, 3-[4-(3-chloro-4-fluorophenoxy)phenyl]-2-methyl-5,6,7,8-tetrahydro-1H-quinolin-4-one]
- IC50 [1]: 0.08 µM

SMILES: Cc1[nH]c2c(c(=O)c1-c1ccc(Oc3cc(Cl)cc(Cl)c3)cc1)CCCC2 [AS022, 3-[4-(3,5-dichlorophenoxy)phenyl]-2-methyl-5,6,7,8-tetrahydro-1H-quinolin-4(1H)-one]
- IC50 [1]: 0.02 to 0.04 µM

SMILES: Cc1[nH]c2c(c(=O)c1-c1ccc(Oc3ccc4c(c3)OCO4)cc1)CCCC2 [AS032, 3-[4-(2H-1,3-benzodioxo1-5-yloxy)phenyl]-2-methyl-5,6,7,8-tetrahydro-1H-quinolin-4-one]
- IC50 [1]: 0.1 to 0.3 µM

SMILES: Cc1[nH]c2c(c(=O)c1-c1ccc(Oc3cc(Cl)nc(Cl)c3)cc1)CCCC2 [AS034/ JAG148, 3-{4-[(2,6-dichloropyridin-4-yl)oxy]phenyl}-2-methyl-5,6,7,8-tetrahydro-1H-quinolin-4-one]
- IC50 [1]: 0.1 to 0.5 µM

SMILES: Cc1c(-c2ccc(Oc3ccc(OC(F)(F)F)cc3)cc2)c(=O)c2c(n1C)CCCC2 [JAG023, 1,2-dimethyl-3-(4-(4-(trifluoromethoxy)phenoxy)phenyl)-5,6,7,8-tetrahydroquinolin-4(1H)-one]
- IC50 [1]: 1 µM

SMILES: Cc1[nH]c2c(c(=O)c1-c1ccc(Oc3ccc(C(=O)O)cc3)nc1)CCCC2 [JAG039, 4-((5-(2-methyl-4-oxo-1,4,5,6,7,8-hexahydroquinolin-3-yl)pyridin-2-yl)oxy)benzoic acid]
- IC50 [2, 3]: > 20 µM
- IC50 [2, 4]: 9.6 µM
- IC50 [2, 5]: 9.6 µM
- IC50 [2, 6]: > 20 µM
- IC50 [2, 7]: > 20 µM

SMILES: Cc1[nH]c2c(c(=O)c1-c1ccc(Oc3ccc(C(=O)O)cc3)cc1)CCCC2 [JAG046, 4-(4-(2-methyl-4-oxo-1,4,5,6,7,8-hexahydroquinolin-3-yl)phenoxy)benzoic acid]
- IC50 [2, 4]: 6.72 µM

SMILES: Cc1[nH]c2c(c(=O)c1-c1ccc(Oc3cccc(C(=O)O)c3)cc1)CCCC2 [JAG047, 3-(4-(2-methyl-4-oxo-1,4,5,6,7,8-hexahydroquinolin-3-yl)phenoxy)benzoic acid]
- IC50 [2, 4]: 3.75 µM

SMILES: Cc1[nH]c2c(c(=O)c1-c1ccc(Oc3ccc(F)cc3)cc1)CCCC2 [JAG58, 3-(4-(4-fluorophenoxy)phenyl)-2-methyl-5,6,7,8-tetrahydroquinolin-4(1H)-one]
- IC50 [1]: 0.04 to 0.08 µM

SMILES: Cc1[nH]c2c(c(=O)c1-c1ccc(Oc3ccc(C(F)(F)F)cc3)cc1)CCCC2 [JAG63, 2-methyl-3-(4-(4-(trifluoromethyl)phenoxy)phenyl)-5,6,7,8-tetrahydroquinolin-4(1H)-one]
- IC50 [1]: 0.1 to 0.3 µM

SMILES: Cc1[nH]c2c(c(=O)c1-c1ccc(Oc3cccc(F)c3)cc1)CCCC2 [JAG069, 3-(4-(3-Fluorophenoxy)phenyl)-2-methyl-5,6,7,8-tetrahydroquinolin-4(1H)-one]
- IC50 [1]: 0.02 µM

SMILES: Cc1[nH]c2c(c(=O)c1-c1ccc(Oc3ccc(Cl)c(Cl)c3)cc1)CCCC2 [JAG084, 3-(4-(3,4-Dichlorophenoxy)phenyl)-2-methyl-5,6,7,8-tetrahydroquinolin-4(1H)-one]
- IC50 [1]: 0.04 to 0.08 µM

SMILES: O=C(O)c1[nH]c2c(c(=O)c1-c1ccc(Oc3ccc(OC(F)(F)F)cc3)cc1)CCCC2 [JAG091, 3(4-(4-Trifluoromethoxyphenoxy)phenyl)-2-(carboxylate)-5,6,7,8-tetrahydroquinolin-4(1H)-one]
- IC50 [1]: > 1 µM

SMILES: O=c1[nH]c2c(c(=O)n1-c1ccc(Oc3ccccc3)cc1)CCCC2 [JAG095, 3-(4-Phenonxyphenyl)-1,2,3,4,5,6,7,8-octahydroquinazoline-2,4,dione]
- IC50 [1]: > 10 µM

SMILES: Cc1[nH]c2c(c(=O)c1-c1ccc(Oc3ccc(OC(F)(F)F)cc3)cc1)CC(C)CC2 (centres unmarked) [JAG106, 3(4-(4-Trifluoromethoxyphenoxy)phenyl)-2,6-dimethyl-5,6,7,8-tetrahydroquinolin-4(1H)-one]
- IC50 [1]: ~1 µM

SMILES: Cc1[nH]c2c(c(=O)c1-c1ccc(Oc3ccc(OC(F)(F)F)cc3)cc1)CCC(C)C2 (centres unmarked) [JAG107, 3(4-(4-Trifluoromethoxyphenoxy)phenyl)-2,7-dimethyl-5,6,7,8-tetrahydroquinolin-4(1H)-one]
- IC50 [1]: 1 µM

SMILES: CCn1c(C)c(-c2ccc(Oc3ccccc3)cc2)c(=O)c2ccccc21 [JM10, 1-ethyl-2-methyl-3-(4-phenoxyphenyl)quinolin-4(1H)-one]
- IC50 [2, 3]: 6.75 µM
- IC50 [2, 5]: 0.88 µM
- IC50 [2, 6]: 4.48 µM
- IC50 [2, 7]: 5.36 µM

SMILES: Cc1[nH]c2ccccc2c(=O)c1-c1ccc(Oc2ccccc2)cc1 [MJM129, 2-methyl-3-(4-phenoxyphenyl)quinolin-4(1H)-one]
- IC50 [2, 3]: 0.01 µM
- IC50 [2, 5]: 0.03 µM
- IC50 [2, 6]: 0.07 µM
- IC50 [2, 7]: 0.08 µM

SMILES: Cc1[nH]c2ccccc2c(=O)c1-c1ccc(Oc2ccc(Cl)cc2)c(O)c1 [RG38, 3-(4-(4-chlorophenoxy)-3-hydroxyphenyl)-2-methylquinolin-4(1H)-one]
- IC50 ([2]; D6 strain, read-out: SYBR Green D6 IC50): 2.88 µM
- IC50 [2, 3]: > 20 µM
- IC50 [2, 5]: 2.84 µM
- IC50 [2, 6]: 13.7 µM
- IC50 [2, 7]: 9.25 µM
